Experimental findings from patent US9296741B2, “Bromodomain inhibitors” (priority 2012, dated 2016) are described below.

The structures appear in SMILES notation.

Data set [1] deals with human BRD4 first bromodomain (BDI_K57-E168) (Homo sapiens (Human), UniProt O60885). The data set is described as follows: TR-FRET bromodomain binding assay, BRD4 first bromodomain. Background: Time-resolved FRET reads energy transfer from a long-lived donor to a nearby acceptor.
Data set [2] addresses human BRD4 second bromodomain (BDII_E352-M457) (Homo sapiens (Human), UniProt O60885). The data set can be described thus: TR-FRET bromodomain binding assay, BRD4 second bromodomain.
In data set [3] the test system is breast cancer cell line MX-1. The data set can be described thus: MX-1 cell line proliferation assay. Type of data set: cell-based, human. The conditions noted are these: Homo sapiens, MX1, 72 h; MX-1 cells, 3-day proliferation, Cell Titer Glo; read-out: Cellular proliferation: EC50. (ATP-based viability assays read luminescence as a measure of living cells.)
The nature of data set [4]: Human liver microsome stability assay. Type of data set: in vitro ADME. The conditions noted are these: both sexes, human, microsomes, pH 7.4. Background: Liver microsomes are vesicles of endoplasmic reticulum, rich in cytochrome P450 enzymes.
Data set [5] is described as follows: Rat liver microsome stability assay. It is filed as in vitro ADME. The conditions noted are these: rat liver microsomes (male Sprague-Dawley), 0.5 μM test compound, pH 7.4, 37° C.; for half-life at 0.5 μM: 0.25 mg/mL microsomal protein, read-out: Stability in rat liver microsomes (t1/2 in minutes).
A short description of data set [6]: Mouse liver microsome stability assay. Type of data set: in vitro ADME. The conditions noted are these: male, CD1, mouse, microsomes, pH 7.4.

As usually defined, the Ki is a measure of affinity in units of concentration, obtained from inhibition or displacement. Higher therefore signals weaker binding. Regarding `Cn1cc(-c2cc(S(C)(=O)=O)ccc2Oc2ccc(F)cc2F)c2cc(CNc3nccs3)[nH]c2c1=O` [Example 283, 4-[2-(2,4-difluorophenoxy)-5-(methylsulfonyl)phenyl]-6-methyl-2-[(1,3-thiazol-2-ylamino)methyl]-1,6-dihydro-7H-pyrrolo[2,3-c]pyridin-7-one], the Ki in data set [1] came out at 18.9 nM; in data set [2] it was 34.6 nM. The EC50 in data set [3] was determined as 138 nM. Also, the half-life at 0.5 μM was 7 min in data set [4], 22 min in data set [5] and 12 min in data set [6].
For the compound `Cn1cc(-c2cc(C(=O)NC3CCS(=O)(=O)C3)ccc2Oc2ccccc2)c2cc[nH]c2c1=O` (stereo not drawn) [Example 18, N-(1,1-dioxidotetrahydrothiophen-3-yl)-3-(6-methyl-7-oxo-6,7-dihydro-1H-pyrrolo[2,3-c]pyridin-4-yl)-4-phenoxybenzamide], the Ki in data set [1] was 10.2 nM; in data set [2], 10.3 nM. Besides, the EC50 in data set [3] was found to be 209 nM. Further, the half-life at 0.5 μM came out at 31 min in data set [4], 11 min in data set [5] and 15 min in data set [6].
Regarding `Cn1cc(-c2cc(NS(C)(=O)=O)ccc2Oc2ccccc2)c2cc(C(=O)O)[nH]c2c1=O` [Example 70, 6-methyl-4-{5-[(methylsulfonyl)amino]-2-phenoxyphenyl}-7-oxo-6,7-dihydro-1H-pyrrolo[2,3-c]pyridine-2-carboxylic acid], the Ki in data set [1] came to 11.8 nM; in data set [2], 46.8 nM. The EC50 in data set [3] is over 3000 nM. In addition, the half-life at 0.5 μM in data set [4] came out at 41 min; in data set [5], 9 min; in data set [6], 68 min.
In the case of `Cn1cc(-c2cc(S(C)(=O)=O)ccc2Oc2ccc(F)cc2F)c2cc(CN3CCOCC3)[nH]c2c1=O` [Example 280, 4-[2-(2,4-difluorophenoxy)-5-(methylsulfonyl)phenyl]-6-methyl-2-(morpholin-4-ylmethyl)-1,6-dihydro-7H-pyrrolo[2,3-c]pyridin-7-one], the Ki was 19.2 nM in data set [1] and 92 nM in data set [2]. The EC50 in data set [3] came out at 292 nM. Further, the half-life at 0.5 μM in data set [4] was 17 min; in data set [5], 84 min; in data set [6] it was 36 min.
Turning to `Cn1cc(-c2cc(S(C)(=O)=O)ccc2Oc2ccc(C#N)cc2)c2cc[nH]c2c1=O` [Example 156, 4-[2-(6-methyl-7-oxo-6,7-dihydro-1H-pyrrolo[2,3-c]pyridin-4-yl)-4-(methylsulfonyl)phenoxy]benzonitrile], the Ki amounted to 11.3 nM in data set [1] and 20.9 nM in data set [2]. Moreover, in data set [3], the EC50 amounted to 114 nM. Also, the half-life at 0.5 μM in data set [4] is over 120 min; in data set [5], over 120 min; in data set [6], 33 min.
As to `Cn1cc(-c2cc(CN3CCCS3(=O)=O)ccc2Oc2ccccc2)c2cc[nH]c2c1=O` [Example 41, 4-{5-[(1,1-dioxido-1,2-thiazolidin-2-yl)methyl]-2-phenoxyphenyl}-6-methyl-1,6-dihydro-7H-pyrrolo[2,3-c]pyridin-7-one], the figures for the Ki in data set [1] and in data set [2] were 2.8 nM and 0.51 nM, respectively. In addition, the EC50 in data set [3] came out at 29.8 nM. The results for the half-life at 0.5 μM in data set [4] and in data set [6] were 13.6 min and 10 min, respectively. For the same compound, the “Stability in rat liver microsomes (t1/2 in minutes)” value in data set [5] ([…] microsomal protein) worked out at 1 min.
On to `CCS(=O)(=O)Nc1ccc(Oc2ccc(F)cc2F)c(-c2cn(C)c(=O)c3[nH]c(C(=O)N4CCN(C)CC4)cc23)c1` [Example 338, N-[4-(2,4-difluorophenoxy)-3-{6-methyl-2-[(4-methylpiperazin-1-yl)carbonyl]-7-oxo-6,7-dihydro-1H-pyrrolo[2,3-c]pyridin-4-yl}phenyl]ethanesulfonamide], for which the results for the Ki in data set [1] and in data set [2] were 0.86 nM and 12.7 nM, respectively. Also, the EC50 in data set [3] amounted to 77.9 nM. The half-life at 0.5 μM was 39 min in data set [4], 29 min in data set [5] and 20 min in data set [6].
With `CCS(=O)(=O)Nc1ccc(Oc2ccc(F)cc2F)c(-c2cn(C)c(=O)c3[nH]cc(C=O)c23)c1` [Example 349, N-[4-(2,4-difluorophenoxy)-3-(3-formyl-6-methyl-7-oxo-6,7-dihydro-1H-pyrrolo[2,3-c]pyridin-4-yl)phenyl]ethanesulfonamide], the Ki in data set [1] is 6.6 nM; in data set [2], 3.1 nM. Besides, the EC50 in data set [3] was 32.1 nM. The results for the half-life at 0.5 μM in data set [4], in data set [5] and in data set [6] were over 120 min, 39 min and 36 min, respectively.
Regarding `Cn1cc(-c2cc(S(C)(=O)=O)ccc2Oc2ccccc2CCO)c2cc[nH]c2c1=O` [Example 309, 4-{2-[2-(2-hydroxyethyl)phenoxy]-5-(methylsulfonyl)phenyl}-6-methyl-1,6-dihydro-7H-pyrrolo[2,3-c]pyridin-7-one], the results for the Ki in data set [1] and in data set [2] were 30.6 nM and 16.9 nM, respectively. The EC50 in data set [3] was found to be 85.9 nM. Besides, the half-life at 0.5 μM in data set [4], in data set [5] and in data set [6] was over 120 min each time.
For the compound `Cn1cc(-c2cc(NS(C)(=O)=O)ccc2OC2CCOCC2)c2cc[nH]c2c1=O` [Example 29, N-[3-(6-methyl-7-oxo-6,7-dihydro-1H-pyrrolo[2,3-c]pyridin-4-yl)-4-(tetrahydro-2H-pyran-4-yloxy)phenyl]methanesulfonamide], the Ki in data set [1] was found to be 1.1 nM; in data set [2], 6.7 nM. Moreover, the EC50 in data set [3] was 71.8 nM. Also, the values for the half-life at 0.5 μM in data set [4], in data set [5] and in data set [6] were over 120 min, 26 min and over 120 min, respectively.
`COC(=O)c1cc2c(-c3ccccc3Oc3ccccc3)cn(C)c(=O)c2[nH]1` [Example 67, methyl 6-methyl-7-oxo-4-(2-phenoxyphenyl)-6,7-dihydro-1H-pyrrolo[2,3-c]pyridine-2-carboxylate]: the Ki in data set [1] is 56.1 nM; in data set [2] it was 93.8 nM. The EC50 in data set [3] worked out at 341 nM. Also, the half-life at 0.5 μM in data set [4] was determined as 6 min; in data set [5], 5 min; in data set [6], 6 min.
As for `CC(C)S(=O)(=O)c1ccc(Oc2ccc(F)cc2F)c(-c2cn(C)c(=O)c3[nH]ccc23)c1` [Example 271, 4-[2-(2,4-difluorophenoxy)-5-(propan-2-ylsulfonyl)phenyl]-6-methyl-1,6-dihydro-7H-pyrrolo[2,3-c]pyridin-7-one], the Ki stood at 2.9 nM in data set [1] and 1.9 nM in data set [2]. For the same compound, the EC50 in data set [3] stood at 21.3 nM. Moreover, the half-life at 0.5 μM worked out at 23 min in data set [4], 12 min in data set [5] and 11 min in data set [6].
Take `CN(C)C(=O)Cc1ccc(OCc2ccccc2)c(-c2cn(C)c(=O)c3[nH]ccc23)c1` [Example 47, 2-[4-(benzyloxy)-3-(6-methyl-7-oxo-6,7-dihydro-1H-pyrrolo[2,3-c]pyridin-4-yl)phenyl]-N,N-dimethylacetamide]: the Ki in data set [1] turned out to be 235 nM; in data set [2] it was 205 nM. The EC50 in data set [3] was determined as 1100 nM. Also, the half-life at 0.5 μM amounted to 8 min in data set [4], 3 min in data set [5] and 5 min in data set [6].
Turning to `Cn1cc(-c2cc(S(N)(=O)=O)cnc2NC2CCCCC2)c2cc[nH]c2c1=O` [Example 96, 6-(cyclohexylamino)-5-(6-methyl-7-oxo-6,7-dihydro-1H-pyrrolo[2,3-c]pyridin-4-yl)pyridine-3-sulfonamide], the Ki was 0.63 nM in data set [1] and 1.1 nM in data set [2]. The EC50 in data set [3] turned out to be 16 nM. The half-life at 0.5 μM came out at 24 min in data set [4], 13 min in data set [5] and 33 min in data set [6].
Take `CCOC(=O)N1CCC(Oc2ccc(S(=O)(=O)CC)cc2-c2cn(C)c(=O)c3[nH]ccc23)CC1` [Example 301, ethyl 4-[4-(ethylsulfonyl)-2-(6-methyl-7-oxo-6,7-dihydro-1H-pyrrolo[2,3-c]pyridin-4-yl)phenoxy]piperidine-1-carboxylate]: the Ki in data set [1] worked out at 17.9 nM; in data set [2], 15.5 nM. Also, the EC50 in data set [3] came to 42.1 nM. Also, the half-life at 0.5 μM in data set [4] was found to be 20 min; in data set [5], 82 min; in data set [6], 13 min.
Consider `Cn1cc(-c2cc(NS(C)(=O)=O)ccc2OC2CCCOC2)c2cc[nH]c2c1=O` (stereo not drawn) [Example 60, N-[3-(6-methyl-7-oxo-6,7-dihydro-1H-pyrrolo[2,3-c]pyridin-4-yl)-4-(tetrahydro-2H-pyran-3-yloxy)phenyl]methanesulfonamide], for which the figures for the Ki in data set [1] and in data set [2] were 0.75 nM and 6.6 nM, respectively. Further, in data set [3], the EC50 amounted to 14.2 nM. For the same compound, the half-life at 0.5 μM in data set [4] is 68 min; in data set [5], 64 min; in data set [6] it was 34 min.
In the case of `Cn1cc(-c2cc(S(C)(=O)=O)ccc2Oc2ccc(F)cc2F)c2cc(C(=O)Nc3nccs3)[nH]c2c1=O` [Example 257, 4-[2-(2,4-difluorophenoxy)-5-(methylsulfonyl)phenyl]-6-methyl-7-oxo-N-(1,3-thiazol-2-yl)-6,7-dihydro-1H-pyrrolo[2,3-c]pyridine-2-carboxamide], the Ki in data set [1] worked out at 58.8 nM; in data set [2], 3 nM. The EC50 in data set [3] was 360 nM. For the same compound, the half-life at 0.5 μM in data set [4] is 18 min; in data set [5], 56 min; in data set [6], 20.3 min.
